Source: article PMC10818931, “In Vitro Evaluation of Drug–Drug Interaction Potential of Epetraborole, a Novel Bacterial Leucyl-tRNA Synthetase Inhibitor” (Pharmaceuticals, 2024)

What was measured:
CYP1A2 = experiment: CYP mRNA induction in plated human hepatocytes (qPCR); conditions: CYP1A2, flumazenil 25 µM
Method: (§1) The induction potential of EBO and M3 on CYP1A2, CYP2B6, and 3A4 was evaluated by incubating the test articles with plated human hepatocytes from 3 individual donors (GKJ, ZEY, WKF) in triplicate according to WuXi AppTec (Cranbury, NJ, USA) SOP.
(§2) At the end of incubation, the RNA of human hepatocytes was isolated and the mRNA expression levels of CYP 1A2, 2B6, and 3A4 were evaluated by using real-time polymerase chain reaction (qPCR) after being reverse-transcribed (RT) to cDNA following manufacturer’s instruction (thermos Fisher Scientific (Waltham, MA, USA). On the last dosing day with EBO or M3, incubation samples were extracted in triplicate by the addition of ice-cold quench solutions at 0, 0.5, 1, 2, 4, 6, and 24 h after dosing and the extracted samples were analyzed using LC-MS/MS to determine the EBO or M3 concentration in each sample.

CYP2B6 = experiment: as above; conditions: CYP2B6; for mRNA Induction Fold in Controls NC: flumazenil 25 µM; for mRNA Induction Fold in Controls PC: phenobarbital 750 µM
Method: as §1, §2

CYP3A4 = experiment: as above; conditions: CYP3A4, flumazenil 25 µM
Method: as §1, §2

in vitro = conditions: human, Caco-2
Method: ^14C-EBO permeability in Caco-2 Cells (MDR1/Protein Glycoprotein or P-gp) was determined using methodologies described previously. The apparent permeability of ^14C-EBO was determined in both the apical to basolateral and the basolateral to apical directions, in triplicate, at final concentrations of 1, 10, and 100 μM. Cell monolayers were incubated with ^14C-EBO at 37 °C for 1, 2, 3, and 4 h. The transepithelial electrical resistance (TEER) values of the monolayers prior to and following each experiment were measured to confirm the integrity of the Caco-2 cell monolayers. The apparent permeability of ^14C-EBO (at a final concentration of 10 μM) was determined in both the apical to basolateral and basolateral to apical directions under the same conditions as previously described in the presence of P-gp inhibitors cyclosporine A (10 μM) and verapamil (100 μM) in the donor compartment.

BCRP = biological target: T1, BCRP (Homo sapiens, UniProt Q9UNQ0); experiment: Substrate potential for BCRP, bidirectional permeability in BCRP-MDCK; assay type: in vitro ADME; conditions: human; BCRP-MDCK; read-out: Efflux ratio of control compound
T1 construct: host or cells: MDCK (BCRP-MDCK)
T1 sequence (Q9UNQ0 1-655): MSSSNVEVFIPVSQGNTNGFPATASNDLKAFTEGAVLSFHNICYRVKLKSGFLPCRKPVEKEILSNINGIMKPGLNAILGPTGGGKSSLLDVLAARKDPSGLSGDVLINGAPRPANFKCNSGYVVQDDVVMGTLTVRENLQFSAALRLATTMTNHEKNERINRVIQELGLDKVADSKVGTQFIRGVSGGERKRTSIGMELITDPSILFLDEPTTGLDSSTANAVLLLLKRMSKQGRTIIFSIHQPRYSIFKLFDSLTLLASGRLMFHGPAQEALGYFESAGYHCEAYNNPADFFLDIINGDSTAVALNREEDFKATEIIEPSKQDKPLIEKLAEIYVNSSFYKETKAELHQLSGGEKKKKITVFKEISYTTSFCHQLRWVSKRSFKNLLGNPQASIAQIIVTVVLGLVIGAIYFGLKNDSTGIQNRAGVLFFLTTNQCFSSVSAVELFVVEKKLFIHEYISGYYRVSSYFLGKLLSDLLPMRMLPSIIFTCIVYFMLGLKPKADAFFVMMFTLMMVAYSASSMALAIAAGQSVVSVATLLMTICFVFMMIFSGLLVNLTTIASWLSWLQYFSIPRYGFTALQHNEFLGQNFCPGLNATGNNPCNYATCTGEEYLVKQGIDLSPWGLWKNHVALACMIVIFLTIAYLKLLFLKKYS

[1] = donor one, control of EBO experiment
[2] = donor one, control of M3 experiment
[3] = donor three, control of EBO experiment
[4] = donor three, control of M3 experiment
[5] = donor two, control of EBO experiment
[6] = donor two, control of M3 experiment

CCOC(=O)c1ncn2c1CN(C)C(=O)c1cc(F)ccc1-2 [flumazenil]
mRNA Induction Fold in Controls NC (CYP1A2; [1]): 0.71 Fold | mRNA Induction Fold in Controls NC (CYP1A2; [2]): 0.94 Fold | mRNA Induction Fold in Controls NC (CYP1A2; [3]): 0.75 Fold | mRNA Induction Fold in Controls NC (CYP1A2; [4]): 0.74 Fold | mRNA Induction Fold in Controls NC (CYP1A2; [5]): 0.94 Fold | mRNA Induction Fold in Controls NC (CYP1A2; [6]): 0.82 Fold | mRNA Induction Fold in Controls NC (CYP2B6; [1]): 0.84 Fold | mRNA Induction Fold in Controls NC (CYP2B6; [2]): 0.91 Fold | mRNA Induction Fold in Controls NC (CYP2B6; [3]): 1.00 Fold | mRNA Induction Fold in Controls NC (CYP2B6; [4]): 0.87 Fold | mRNA Induction Fold in Controls NC (CYP2B6; [5]): 1.09 Fold | mRNA Induction Fold in Controls NC (CYP2B6; [6]): 0.87 Fold | mRNA Induction Fold in Controls NC (CYP3A4; [1]): 0.89 Fold | mRNA Induction Fold in Controls NC (CYP3A4; [2]): 1.06 Fold | mRNA Induction Fold in Controls NC (CYP3A4; [3]): 0.98 Fold | mRNA Induction Fold in Controls NC (CYP3A4; [4]): 0.87 Fold | mRNA Induction Fold in Controls NC (CYP3A4; [5]): 0.96 Fold | mRNA Induction Fold in Controls NC (CYP3A4; [6]): 0.66 Fold

OC[C@@H](O)[C@@H](O)[C@H](O)[C@H](O)CO [mannitol, reference compound]
Papp (in vitro): 0.19 to 0.69 ×10⁻⁶ cm/s

CCC1(c2ccccc2)C(=O)NC(=O)NC1=O [phenobarbital]
mRNA Induction Fold in Controls PC (CYP2B6; [1]): 7.45 Fold | mRNA Induction Fold in Controls PC (CYP2B6; [2]): 9.17 Fold | mRNA Induction Fold in Controls PC (CYP2B6; [3]): 6.64 Fold | mRNA Induction Fold in Controls PC (CYP2B6; [4]): 6.86 Fold | mRNA Induction Fold in Controls PC (CYP2B6; [5]): 6.88 Fold | mRNA Induction Fold in Controls PC (CYP2B6; [6]): 6.29 Fold

Nc1nc(Cl)nc2c1ncn2[C@H]1C[C@H](O)[C@@H](CO)O1 [cladribine, reference compound]
efflux ratio (BCRP): 288
